{
  "source": "patent US20120309821A1",
  "about": "“Use of epigallocatechin-3-gallate for immune regulation” (NATIONAL DEFENSE MEDICAL CENTER, priority 2011, published 2012)",
  "assay_type_in_all_cases": "in vivo, mouse",
  "key": {"NLRP3": {"tested_on": "NLRP3", "experiment": "Western blot of NLRP3 in kidney", "details": "120 mg/kg by gavage daily; week 34; increase seen in disease control", "method": "(§1) Female NZB/W F1 mice were purchased from the Animal Center of the National Taiwan University (Taipei, Taiwan, ROC) and, at 12 weeks of age, were divided into two groups, one of which was given normal saline and served as the disease control, while the other was given 120 mg/kg body weight of EGCG (Ryss Lab, Inc., CA, USA) (this dose is a slight modification of those used in previous in vivo studies) by gavage daily till sacrificed at 34-weeks-old. 8-Week-old NZB/W F1 female mice (prior to onset of autoantibody production) were used as normal controls. Urine samples were collected in metabolic cages every 2 weeks and urine protein levels were measured, and serum samples were used to measure serum levels of blood urea nitrogen (BUN) and creatinine (Cr) as described previously (Ka, S. M. et al. Decoy receptor 3 ameliorates an autoimmune crescentic glomerulonephritis model in mice. J Am Soc Nephrol 18:2473-2485; 2007). All animal experiments were performed upon the ethical approval of the Institutional Animal Care and Use Committee of the National Defense Medical Center, Taiwan and according to the ethical rules in the NIH Guide for the Care and Use of Laboratory Animals. […] Antibodies to histone H3 (Cell Signaling) or β-actin (Santa Cruz) were used as internal controls for the nuclear and cytosolic target proteins, respectively."}, "IL-1β": {"tested_on": "IL-1β", "experiment": "Serum IL-1β ELISA", "details": "120 mg/kg by gavage daily; week 34; vs disease control mice", "method": "(§2) Female NZB/W F1 mice were purchased from the Animal Center of the National Taiwan University (Taipei, Taiwan, ROC) and, at 12 weeks of age, were divided into two groups, one of which was given normal saline and served as the disease control, while the other was given 120 mg/kg body weight of EGCG (Ryss Lab, Inc., CA, USA) (this dose is a slight modification of those used in previous in vivo studies) by gavage daily till sacrificed at 34-weeks-old. 8-Week-old NZB/W F1 female mice (prior to onset of autoantibody production) were used as normal controls. Urine samples were collected in metabolic cages every 2 weeks and urine protein levels were measured, and serum samples were used to measure serum levels of blood urea nitrogen (BUN) and creatinine (Cr) as described previously (Ka, S. M. et al. Decoy receptor 3 ameliorates an autoimmune crescentic glomerulonephritis model in mice. J Am Soc Nephrol 18:2473-2485; 2007). All animal experiments were performed upon the ethical approval of the Institutional Animal Care and Use Committee of the National Defense Medical Center, Taiwan and according to the ethical rules in the NIH Guide for the Care and Use of Laboratory Animals. Serum levels of IL-1β and IL-18 were measured using commercial ELISA kits (BD Biosciences) according to the manufacturer's instructions."}, "Nrf2": {"tested_on": "Nrf2", "experiment": "Western blot of nuclear Nrf2 in kidney", "details": "120 mg/kg by gavage daily, week 34, compared to disease controls", "method": "as §1"}, "anti-dsDNA antibodies": {"tested_on": "anti-dsDNA antibodies", "experiment": "Serum anti-dsDNA antibody ELISA", "details": "120 mg/kg by gavage daily; week 34; increase over normal control", "method": "as §2, with “All animal experiments were performed upon the ethical approval of the Institutional Animal Care and Use Committee of the National Defense Medical Center, Taiwan and according to the ethical rules in the NIH Guide for the Care and Use of Laboratory Animals.” left out, “anti-dsDNA antibodies” for “IL-1β and IL-18”, “an anti-mouse dsDNA enzyme-linked immunosorbent assay (ELISA) kit (Alpha Diagnostic, TX, USA)” for “commercial ELISA kits (BD Biosciences)”, “instructions. The absorbance at 450 nm was measured using an ELISA plate reader (Bio-Tek, VT, USA).” for “instructions.”"}, "[1]": {"tested_on": "IgG immune complex deposition in the glomerulus", "experiment": "Kidney IgG immune complex deposits by immunofluorescence", "details": "120 mg/kg by gavage daily; week 34; disease control vs EGCG-treated mice", "method": "as §2, with “For immune complex detection, frozen renal tissues were prepared and incubated with fluorescein isothiocyanate (FITC)-conjugated goat anti-mouse IgG antibodies (Cappel, N.C., USA). […] Scoring” for “Serum levels”, “staining was recorded.” for “IL-1β and IL-18 were measured using commercial ELISA kits (BD Biosciences) according to the manufacturer's instructions.”"}},
  "data": [
    {"substance": "Epigallocatechin-3-gallate [EGCG]", "values": [
      {"measurement": "levels of NLRP3 protein in kidney tissues", "setting": "NLRP3", "value": "inhibited"},
      {"measurement": "serum levels of IL-1β", "setting": "IL-1β", "value": "significantly lower"},
      {"measurement": "Nrf2 translocation into the nucleus", "setting": "Nrf2", "value": "markedly increased"},
      {"measurement": "serum anti-dsDNA antibody levels", "setting": "anti-dsDNA antibodies", "value": "not inhibited"},
      {"measurement": "IgG immune complex deposition in the glomerulus", "setting": "[1]", "value": "no significant difference"}
    ]}
  ]
}
